# B1: LacI: test regulatory protein (Lac repressor) binding Hef1a-LacO1Oid (protein, UniProt P03023 1-360, looked up)
# Lactose operon repressor: MKPVTLYDVAEYAGVSYQTVSRVVNQASHVSAKTREKVEAAMAELNYIPNRVAQQLAGKQSLLIGVATSSLALHAPSQIVAAIKSRADQLGASVVVSMVERSGVEACKAAVHNLLAQRVSGLIINYPLDDQDAIAVEAACTNVPALFLDVSDQTPINSIIFSHEDGTRLGVEHLVALGHQQIALLAGPLSSVSARLRLAGWHKYLTRNQIQPIAEREGDWSAMSGFQQTMQMLNEGIVPTAMLVANDQMALGAMRAITESGLRVGADISVVGYDDTEDSSCYIPPLTTIKQDFRLLGQTSVDRLLQLSQGQAVKGNQLLPVSLVKRKTTLAPNTQTASPRALADSLMQLARQVSRLESGQ
# Columns and labels:
# Type in all cases: cell-based
# [1] = tested on: Tre genetic element (rtTA); test: Example 1 multiplex circuit: small molecule effector (dox) transfer curve, input reporter EBFP2 by FACS; conditions: Example 1, FIG. 7, normalized input reporter EBFP2, HEK 293 FT
# Excerpt: Both the regulatory protein transcription unit and the input reporter protein transcription unit are under the control of the small molecule effector doxycycline (dox). In this example, the activity of the small molecule effector (dox) is mediated through an effector transcription unit. The effector transcription unit comprises a constitutive effector genetic element (pHef1a) and a coding sequence for an effector-regulated protein (rtTA), wherein the constitutive effector genetic element (pHef1a) controls expression of the effector-controlled protein (rtTA). […]
# The input transcription unit comprises a genetic element responsive to a small molecule effector (Tre) and a coding sequence for the input reporter protein (EBFP2), wherein the genetic element responsive to the effector-regulated protein (Tre) controls expression of the input reporter protein (EBPF2). […] The input reporter protein EBFP2 has a blue fluorescence emission. […]
# (§1) The cells are then subjected to FACS analysis and the amounts of input, output and constitutive protein fluorescence is measured for each cell. […]
# (§2) While the colors for the input, output and constitutive protein fluorescence are selected to have as little overlap as possible, there is some inherent overlap between the different colors. […]
# [2] = tested on: Tre genetic element (rtTA); test: Example 2 multiplex circuit: small molecule effector (dox) transfer curve, input reporter EYFP; conditions: Example 2, FIG. 10, normalized input reporter EYFP
# Excerpt: The multiplex circuit to be characterized is shown in FIG. 9. he regulatory protein transcription unit and the input reporter protein transcription unit, which are co-expressed in this example, are under the control of the small molecule effector doxycycline (dox), which binds to the constitutively expressed protein rtTA to regulate transcription from the Tre genetic element. In this example, the effector transcription unit comprises a constitutive effector genetic element (CAG) and a coding sequence for an effector-regulated protein (rtTA), wherein the constitutive effector genetic element (CAG) controls expression of the effector-controlled protein (rtTA). In this example, the effector transcription unit further comprises coding sequence for the VP16-GAL4 activator which binds UAS-T1 in the output transcription unit. In the absence of dox, Tal1 is not expressed and the constitutively expressed VP16-GAL4 activator binds to UAS-T1, leading to expression of the mKate output reporter. The effector transcription unit contains a coding sequence for a 2A self-cleaving peptide allowing for expression of rtTA and VP16-GAL4 from the same construct. The test regulatory protein transcription unit and the input transcription unit are co-expressed from a genetic element responsive to a small molecule effector (Tre). […] The input reporter protein EYFP has a yellow fluorescence emission. […]
# Hef1a-LacO1Oid = test: Example 1 multiplex circuit: regulatory protein (LacI) transfer curve, output reporter EYFP by FACS; conditions: Example 1, FIG. 8, normalized output reporter EYFP
# Excerpt: The regulatory protein transcription unit comprises a genetic element responsive to a small molecule effector (Tre) and a coding sequence for the regulatory protein (LacI), wherein the genetic element responsive to the genetic element responsive to the effector-regulated protein (Tre) controls expression of the regulatory protein (LacI). In the present case, the genetic element responsive to the effector-regulated protein (Tre) is responsive to the effector-controlled protein (rtTA).
# The output transcription unit comprising a genetic element responsive to the regulatory protein (Hef1a-LacO1Oid) and a coding sequence for the output reporter protein (EYFP), wherein the genetic element responsive to the regulatory protein (Hef1a-LacO1Oid) controls expression of the output reporter protein (EYFP). The output reporter protein EYFP has a yellow fluorescence emission. […]
# as §1, §2
molecule,measurement,setting,value
"C[C@H]1c2cccc(O)c2C(=O)C2=C(O)[C@]3(O)C(=O)C(C(N)=O)=C(O)[C@@H](N(C)C)[C@@H]3[C@@H](O)[C@@H]21 [dox, doxycycline]",dox level at which the level of IFP saturates at a high value,[1],more than 200 nM
same,dox level at which the level of IFP stays low regardless of the plasmid count,[1],less than or equal to 3 nM
same,dox level at which the level of IFP saturates at a high value,[2],more than 200 nM
same,dox level at which the level of IFP stays low regardless of the plasmid count,[2],less than or equal to 3 nM
B1,repression of the output of Hef1a-LacO1Oid,Hef1a-LacO1Oid,100 fold
